Experimental data reported in ChEMBL document CHEMBL1201862, “PubChem BioAssay data set” (2004).
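1) Cells in 96-well plates. 2) Compound, 48 h, 5 concentrations. 3) Linear interpolation between surrounding doses. 4) Unreached endpoint = highest concentration. GI50 marks 50% less growth.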 The source made the active and inactive calls. Cut-off read from the data, not from the text of the source: active = GI50 up to about 1.1 µM and inactive = higher.

Experiments:
Experiment in all cases: NCI anticancer screen, dose series, 48 h
[1] = test system: 786-0
[2] = test system: COLO 205
[3] = test system: EKVX
[4] = test system: HOP-62
[5] = test system: Hs-578T
[6] = test system: K562
[7] = test system: M14
[8] = test system: NCI-H23
[9] = test system: NCI/ADR-RES
[10] = test system: OVCAR-3
[11] = test system: OVCAR-4
[12] = test system: OVCAR-8
[13] = test system: RPMI-8226
[14] = test system: SF-268
[15] = test system: SF-295
[16] = test system: SK-OV-3
[17] = test system: SR
[18] = test system: T47D
[19] = test system: U-251
[20] = test system: UACC-62

With `CCOC(=O)C1C(=O)C=C(c2cc(C)ccc2O)CC1c1cccc(Br)c1` (stereo not given) the GI50 [1] was 17.6 µM (inactive), the GI50 [2] was 16.2 µM (inactive) and the GI50 [3] was 24 µM (inactive). The GI50 [4] was 46.7 µM (inactive), the GI50 [5] was 14.8 µM (inactive) and the GI50 [6] was 11.7 µM (inactive). For the same compound, the GI50 [7] was 17.4 µM (inactive), the GI50 [8] was 17.5 µM (inactive) and the GI50 [9] was 13.4 µM (inactive). For the same compound, the GI50 [10] was 21.5 µM (inactive), the GI50 [11] was 0.075 µM (active) and the GI50 [12] was 30 µM (inactive). For the same compound, the GI50 [13] was 13.9 µM (inactive), the GI50 [14] was 19.5 µM (inactive) and the GI50 [15] was 13.6 µM (inactive). The GI50 [16] was 14.2 µM (inactive), the GI50 [17] was 5.13 µM (inactive) and the GI50 [18] was 18.6 µM (inactive). For the same compound, the GI50 [19] was 16.1 µM (inactive) and the GI50 [20] was 14 µM (inactive).
In the case of `Cc1cc(CNC(=O)OCc2ccccc2)c(C)c2c1Oc1ccccc1O2`, the GI50 [1] is reported as 15 µM (inactive), the GI50 [2] is reported as 50.1 µM (inactive) and the GI50 [3] is reported as 42.9 µM (inactive). The GI50 [4] was 17.4 µM (inactive), the GI50 [5] was 19.7 µM (inactive) and the GI50 [6] was > 100 µM (inactive). The GI50 [7] was 69.7 µM (inactive), the GI50 [8] was 24.3 µM (inactive) and the GI50 [9] was 19 µM (inactive). The GI50 [10] was 57.8 µM (inactive), the GI50 [11] was 21.3 µM (inactive) and the GI50 [12] was 17.1 µM (inactive). The GI50 [13] was > 100 µM (inactive), the GI50 [14] was 20.7 µM (inactive) and the GI50 [15] was 31.8 µM (inactive). For the same compound, the GI50 [16] was 17.1 µM (inactive), the GI50 [17] was > 100 µM (inactive) and the GI50 [18] was 25.8 µM (inactive). For the same compound, the GI50 [19] was 18.8 µM (inactive) and the GI50 [20] was 26.5 µM (inactive).
With `CSc1nc(NC2OC(COC(C)=O)C(OC(C)=O)C(OC(C)=O)C2OC(C)=O)c(/N=C\C=N/c2c(NC3OC(COC(C)=O)C(OC(C)=O)C(OC(C)=O)C3OC(C)=O)nc(SC)n(C)c2=O)c(=O)n1C` (stereo not given) the GI50 [1] was 34 µM (inactive), the GI50 [2] was > 100 µM (inactive) and the GI50 [3] was > 100 µM (inactive). The GI50 [4] was 4.32 µM (inactive), the GI50 [5] was 26.1 µM (inactive) and the GI50 [6] was > 100 µM (inactive). The GI50 [7] was > 4.65 µM (inactive), the GI50 [8] was > 70 µM (inactive) and the GI50 [9] was > 100 µM (inactive). The GI50 [10] was > 15.5 µM (inactive), the GI50 [11] was > 100 µM (inactive) and the GI50 [12] was 73.8 µM (inactive). For the same compound, the GI50 [13] was > 100 µM (inactive), the GI50 [14] was 62.1 µM (inactive) and the GI50 [15] was 33.3 µM (inactive). For the same compound, the GI50 [16] was 36.1 µM (inactive), the GI50 [17] was > 100 µM (inactive) and the GI50 [18] was 96.8 µM (inactive). The GI50 [19] was 41.2 µM (inactive) and the GI50 [20] was > 94.8 µM (inactive).
With `O=C(CCl)Nc1cc(Cl)c(Cl)cc1Cl` the GI50 [1] was 1.51 µM (inactive), the GI50 [2] was 1.85 µM (inactive) and the GI50 [3] was 2.54 µM (inactive). The GI50 [4] was 2.15 µM (inactive), the GI50 [5] was 3.4 µM (inactive) and the GI50 [6] was 3.66 µM (inactive). For the same compound, the GI50 [7] was 1.48 µM (inactive), the GI50 [8] was 1.7 µM (inactive) and the GI50 [9] was 2.05 µM (inactive). For the same compound, the GI50 [10] was 1.76 µM (inactive), the GI50 [11] was 2.27 µM (inactive) and the GI50 [12] was 1.73 µM (inactive). The GI50 [13] was 4.74 µM (inactive), the GI50 [14] was 2.3 µM (inactive) and the GI50 [15] was 5.26 µM (inactive). For the same compound, the GI50 [16] was > 10 µM (inactive), the GI50 [17] was 0.644 µM (active) and the GI50 [18] was 2.29 µM (inactive). For the same compound, the GI50 [19] was 2.01 µM (inactive) and the GI50 [20] was 1.93 µM (inactive).
With `NCCNCC(O)CO` (stereo not given) the GI50 [1] was > 100 µM (inactive), the GI50 [2] was > 100 µM (inactive) and the GI50 [3] was > 100 µM (inactive). For the same compound, the GI50 [4] was > 100 µM (inactive), the GI50 [5] was > 100 µM (inactive) and the GI50 [6] was > 100 µM (inactive). For the same compound, the GI50 [7] was > 100 µM (inactive), the GI50 [8] was > 100 µM (inactive) and the GI50 [9] was > 100 µM (inactive). The GI50 [10] was > 100 µM (inactive), the GI50 [11] was > 100 µM (inactive) and the GI50 [12] was > 100 µM (inactive). The GI50 [13] was > 100 µM (inactive), the GI50 [14] was > 100 µM (inactive) and the GI50 [15] was > 100 µM (inactive). For the same compound, the GI50 [16] was > 100 µM (inactive), the GI50 [17] was > 100 µM (inactive) and the GI50 [18] was > 100 µM (inactive). For the same compound, the GI50 [19] was > 100 µM (inactive) and the GI50 [20] was > 100 µM (inactive).
For `COc1ccccc1NC(=O)CC(=O)N1N=C(N2c3ccccc3Sc3ccccc32)CC1c1ccccc1` (stereo not given), the GI50 [1] was > 100 µM (inactive), the GI50 [2] was > 100 µM (inactive) and the GI50 [3] was > 100 µM (inactive). The GI50 [4] was > 100 µM (inactive), the GI50 [5] was > 100 µM (inactive) and the GI50 [6] was > 100 µM (inactive). The GI50 [7] was > 100 µM (inactive), the GI50 [8] was > 100 µM (inactive) and the GI50 [9] was > 100 µM (inactive). The GI50 [10] was > 100 µM (inactive), the GI50 [11] was > 100 µM (inactive) and the GI50 [12] was > 100 µM (inactive). The GI50 [13] was > 100 µM (inactive), the GI50 [14] was > 100 µM (inactive) and the GI50 [15] was > 100 µM (inactive). For the same compound, the GI50 [16] was > 100 µM (inactive), the GI50 [17] was > 100 µM (inactive) and the GI50 [18] was > 100 µM (inactive). The GI50 [19] was > 100 µM (inactive) and the GI50 [20] was > 100 µM (inactive).
